The values below are quoted from earlier work in US10308909B2, “Dried spore germinative compound mixtures” (Envera, LLC, priority 2013, dated 2019).

The test system of data set [1] is Bacillus.
Data set [2] relates to bacterial spores. The settings on record: concentrations as low as.

Consider `C[C@@H](N)C(=O)O` [D-alanine], for which the “inhibition of Bacillus germination” value in data set [1] is given as “powerful inhibitor of Bacillus germination”.
For `Oc1ccccc1` [phenol], in data set [2], the “concentration that inhibits germination” value was 0.2 % (wt./vol).
With cresol, the “concentration that inhibits germination” value in data set [2] is 0.08 % (wt./vol).
